The source of these data is patent publication EP0533724B1, “CALCIUM CITRATE MALATE COMPOSITION” (THE PROCTER & GAMBLE COMPANY, priority 1990, dated 1991).

The data set can be described thus: physchem. Conditions: water. An excerpt: The exact method for determining this is described hereinafter.

`O=C(O)CC(O)C(=O)O` (stereo not shown) [calcium malate] came in with a solubility at 0.5 h of 660 mg/mL.

The term solubility denotes the concentration that dissolves in the medium under given conditions. A higher solubility goes with a readily soluble substance.
